Data on nine compounds can be found in US20040063780A1, “Pharmaceutical preparations for treatment of type II diabetes and methods for treatment of type II diabetes” (CHUGAI SEIYAKU KABUSHIKI KAISHA, priority 2002, published 2004).

One series relates to db/db mice. Kind of series: Oral glucose tolerance test in db/db mice (blood glucose and blood lactic acid levels). It is filed as in vivo, mice (C57BLKS/J-m+/+Lepr<db>(db/db)). Conditions: subcutaneous, 30 min before oral glucose 3 g/kg, AUC up to 2 hours. The text has this: In a glucose tolerance test with oral administration to db/db mice, approximately 50% suppression of blood glucose level in the db/db mice produces a level increase similar to that of healthy mice, and therefore a blood glucose reduction rate of at least 40%, and especially at least 50%, is preferred.
Measurement of blood glucose reduction rate in db/db mice by a glucose tolerance test with oral administration may be carried out by a publicly known method, but the following method is preferred. Specifically, 11- to 17-week-old female mice (C57BLKS/J-m+/+Lepr(db/db) ) are starved for 18-24 hours. A group of five or six mice is used for the test. Blood is sampled from the tail for measurement of the blood glucose levels before treatment as a control. After sampling, the biguanide derivative is dissolved in phosphate-buffered saline to a suitable concentration and subcutaneously administered at a dose of 5 ml/kg. As a control there are prepared mice administered only the solvent. Glucose is then administered orally at a dose of 3 g/6 ml/kg at 30 minutes after administration of the compound or solvent as an oral glucose tolerance test. Blood is sampled from the tail for measurement of the blood glucose levels 30 minutes, 1 hour and 2 hours after glucose administration. The blood glucose levels are measured using a New Blood Sugar Test (Roche Diagnostics) or a Glucose CII-Test Wako (Wako Pure Chemical Industries, Ltd.).
(§1) The blood glucose reduction rate is calculated according to the following formula.
Blood glucose reduction rate (%)=[(AUC for blood glucose increase level of solvent-administered group—AUC for blood glucose increase level of compound-administered group)/AUC for blood glucose increase level of solvent-administered group]×100
The AUC for blood glucose increase level represents the area of the increase portion in a graph of the blood glucose level changes after glucose administration plotted with respect to time, up to 2 hours after glucose administration, with the glucose level prior to glucose administration as the baseline. Specifically, the AUC for the blood glucose increase level may be calculated by the following formula, where A=blood glucose level before glucose administration, B=blood glucose level 30 minutes after glucose administration, C=blood glucose level 1 hour after glucose administration, D=blood glucose level 2 hours after glucose administration.
AUC for blood glucose increase level=0.5×((A+B)/2-A)+0.5×((B+C)/2-A)+1×((C+D)/2-A)
Measurement of blood glucose reduction rate and blood lactic acid levels by the aforementioned oral glucose tolerance test may be carried out by a publicly known method, and the measurement of the former may be carried out by the method described above, while the following method is preferred for measurement of the latter. Specifically, 11- to 17-week-old female mice (C57BLKS/J-m+/+Lepr(db/db)) are starved for 18-24 hours. A group of five or six mice is used for the test. Blood is sampled from the tail for measurement of the blood lactic acid levels before treatment as a control. After sampling, the biguanide derivative is dissolved in phosphate-buffered saline to a suitable concentration and subcutaneously administered at a dose of 5 ml/kg. As a control there are prepared mice administered only the solvent. Glucose is then administered orally at a dose of 3 g/6 ml/kg at 30 minutes after administration of the compound or solvent as an oral glucose tolerance test. Blood is sampled from the tail for measurement of the blood lactic acid levels 30 minutes, 1 hour and 2 hours after glucose administration. The blood lactic acid levels are measured using an “Asuka Sigma” (Sigma Diagnostics)
The blood lactic acid level increase rate is calculated according to the following formula. […]

The next series deals with KKAy mice. The series is described as follows: Hypoglycemic test by oral administration using KKAy mice. It is filed as in vivo, mice (KKAy/Ta). Conditions: AUC for blood glucose up to 6 hours after administration.
Source text: The strength of the insulin sensitivity-enhancing effect may be evaluated based on the degree of blood glucose reduction rate with administration of the drug agent to KKAy mice. […] In hypoglycemic tests by oral administration using KKAy mice, approximately 45% suppression of blood glucose level in KKAy mice produces a level similar to healthy mice, and therefore a blood glucose reduction rate of 40-50% is preferred.
Measurement of blood glucose reduction rate in KKAy mice by a hypoglycemic test with oral administration may be carried out by a publicly known method, but the following method is preferred.
Specifically, a group of six 11-week-old male mice (KKAy/Ta) is used for the test. Blood is sampled from the tail for measurement of the blood glucose levels before treatment as a control. After sampling, the biguanide derivative is dissolved in a 0.5% CMC-Na (sodium carboxymethyl cellulose) solution to a suitable concentration and orally administered at a dose of 10 mL/kg. As a control there are prepared mice administered only the solvent. Blood is sampled from the tail to measure the blood glucose levels 1, 2, 4 and 6 hours after administration of the drug. The blood glucose levels are measured using a Glucose CII-Test Wako (Wako Pure Chemical Industries, Ltd.).
as §1
Blood glucose reduction rate (%)=[(AUC for blood glucose of control group—AUC for blood glucose of compound-administered group)/AUC for blood glucose of control group]×100
The AUC for blood glucose represents the area in a graph of the blood glucose level changes after administration of the drug plotted with respect to time, up to 6 hours after administration with a glucose level of 0 as the baseline. Specifically, the AUC for the blood glucose level may be calculated by the following formula, where A=blood glucose level before drug administration, B=blood glucose level 1 hour after drug administration, C=blood glucose level 2 hours after drug administration, D=blood glucose level 4 hours after drug administration, E=blood glucose level 6 hours after drug administration.
AUC for blood glucose level=1×((A+B)/2)+1×((B+C)/2)+2×((C+D)/2)+2×((D+E)/2)
A group of six 11-week-old male mice (KKAy/Ta) was used for the test. Blood was sampled from the tail for measurement of the blood glucose levels before treatment as a control. After sampling, furfuryl biguanide was dissolved in a 0.5% CMC-Na (sodium carboxymethyl cellulose) solution to a suitable concentration and orally administered at 10 mL/kg with the dosages shown in Table 1 (Examples 1-5). For comparison, metformin was also orally administered to mice in the doses shown in Table 1 (Comparative Examples 1-5). As a control there were prepared mice which had been orally administered the solvent alone. Blood was sampled from the tail to measure the blood glucose levels 1, 2, 4 and 6 hours after administration of the drug, and the blood glucose reduction rates were calculated by the formula given above. The blood glucose levels were measured using a Glucose CIT-Test Wako (Wako Pure Chemical Industries, Ltd.).

The mark [1] stands for this setting: Mus musculus, sc, 2 h, 75 mg/kg, read-out: Blood glucose reduction rate (%).
The mark [2] stands for this setting: Mus musculus, sc, 2 h, read-out: Blood glucose reduction rate (%).
Where [3] appears, read: Mus musculus, sc, 2 h, 200 mg/kg, read-out: Blood glucose reduction rate (%).

“And” between values parts separate entries of the source, which are not always exact repeats. Equal entries are not always repeated.

In the case of `Cc1cc(CNC(=N)NC(=N)N)oc1C` [1-[(4,5-Dimethylfuran-2-yl)methyl] Biguanide], the inhibition in vivo at 75 mg/kg in the series on db/db mice (setting [1]) was determined as 52%.
Consider `Cc1ccc(CNC(=N)NC(=N)N)o1` [1-(5-methylfurfuryl) biguanide], for which the inhibition in vivo at 25 mg/kg with db/db mice (Mus musculus, sc, 2 h, 25 mg/kg, read-out: Blood glucose reduction rate (%)) was 24.7%. For the same compound, the inhibition in vivo at 50 mg/kg with db/db mice (Mus musculus, sc, 2 h, 50 mg/kg, read-out: Blood glucose reduction rate (%)) was determined as 46.1%. In addition, the inhibition in vivo at 75 mg/kg in the series on db/db mice (setting [1]) was determined as 54.7%. In addition, the inhibition in vivo at 100 mg/kg with db/db mice (setting [2]) stood at 86.6%. In addition, the entries for the “Blood lactic acid level increase rate (%)” value in the series on db/db mice (25 mg/kg), with db/db mice (50 mg/kg) and with db/db mice (75 mg/kg) were 3.9%, 1.3% and 14.7%, respectively.
Consider `CSc1coc(CNC(=N)NC(=N)N)c1` [1-[(4-Methylthiofuran-2-yl)methyl] Biguanide], for which the inhibition in vivo at 75 mg/kg in the series with db/db mice (setting [1]) stood at 44.1%. Also, in the series on db/db mice (setting [2]), the inhibition in vivo at 100 mg/kg came out at 47.5% and the inhibition in vivo at 150 mg/kg is 58.1%. The inhibition in vivo at 200 mg/kg in the series with db/db mice (setting [3]) came to 73.9%.
As for `CC(C)(C)c1ccc(CNC(=N)NC(=N)N)o1` [1-[(5-tert-butylfuran-2-yl)methyl] Biguanide], the inhibition in vivo at 75 mg/kg in the series on db/db mice (setting [1]) is 62.1%.
For `CN(C)C(=N)N=C(N)N` [Metformin, reference compound], the inhibition in vivo at 100 mg/kg with db/db mice (setting [2]) was 19.4%. Besides, the inhibition in vivo at 200 mg/kg in the series with db/db mice (setting [3]) stood at 37.5%. The “Blood lactic acid level increase rate (%)” value with db/db mice (200 mg/kg, 200 mg/kg) is 36.8% and 42.7%; in the series with db/db mice (300 mg/kg, 300 mg/kg), 133.7% and 155.9% and 138.9% and 145.9%. Further, the “Blood glucose reduction rate (%)” value is 11.6% in the series with KKAy mice (150.0 mg/kg); 6.4% in the series with KKAy mice (300.0 mg/kg); 21.8% in the series with KKAy mice (600.0 mg/kg); 32.7% in the series on KKAy mice (900.0 mg/kg); 46.4% with KKAy mice (1350.0 mg/kg).
`CSCc1ccc(CNC(=N)NC(=N)N)o1` [1-[(5-Methylthiomethylfuran-2-yl)methyll] Biguanide]: the inhibition in vivo at 75 mg/kg in the series with db/db mice (setting [1]) worked out at 46%.
For `CCc1ccc(CNC(=N)NC(=N)N)o1` [1-[(5-ethylfuran-2-yl)methyl] biguanide, 1-[(5-Ethylfuran-2-yl)methyl] Biguanide], in the series with db/db mice (setting [1]), the inhibition in vivo at 75 mg/kg came out at 71.3%.
`CSCc1ccoc1CNC(=N)NC(=N)N` [1-[(3-Methylthiomethylfuran-2-yl)methyl] Biguanide]: the inhibition in vivo at 150 mg/kg in the series on db/db mice (setting [2]) turned out to be 47.3%.
`N=C(N)NC(=N)NCc1ccco1` [Furfuryl biguanide, Furfuryl Biguanide]: the inhibition in vivo at 20 mg/kg in the series on db/db mice (Mus musculus, sc, 2 h, 20.0 mg/kg, read-out: Blood glucose reduction rate (%)) is 46.9%. The inhibition in vivo at 40 mg/kg in the series with db/db mice (Mus musculus, sc, 2 h, 40.0 mg/kg, read-out: Blood glucose reduction rate (%)) worked out at 52.3%. Further, the inhibition in vivo at 75 mg/kg with db/db mice (setting [1]) came to 60.6%. The inhibition in vivo at 80 mg/kg with db/db mice (Mus musculus, sc, 2 h, 80.0 mg/kg, read-out: Blood glucose reduction rate (%)) worked out at 68.7%. The “Blood lactic acid level increase rate (%)” value in the series on db/db mice (20.0 mg/kg) is listed as 7.0%; with db/db mice (40.0 mg/kg) it was 16.7%; in the series on db/db mice (75 mg/kg), 22.0%; in the series with db/db mice (80.0 mg/kg) it was 11.2%. Further, the “Blood glucose reduction rate (%)” value in the series with KKAy mice (25.0 mg/kg) was found to be 8.7%; in the series on KKAy mice (50.0 mg/kg), 15.2%; in the series on KKAy mice (100.0 mg/kg), 29.4%; in the series with KKAy mice (200.0 mg/kg) it was 43.9%; in the series with KKAy mice (300.0 mg/kg), 48.0%.
